# Data as given in patent publication US20040241088A1, “Method for evaluating the efficacy of certain cancer treatments” (Georgetown University, priority 2003, published 2004).
# How the values were obtained:
# [1] = system: components of the PI3K/AKT pathway and apoptosis; experiment: Western analysis of signal transduction and apoptosis proteins in PANC-1 cells; type: cell-based, human
# Description: (§1) Treatment of Pancreatic Cancer (PanCa) with the tumor targeting TfRscFv-LipA-AS HER-2 complex can down-regulate HER-2 expression (even when not overexpressed), thus negatively affecting cell growth/survival and positively enhancing apoptotic pathways leading to increased tumor cell killing.
# The phosphorothioate sequence specific AS HER-2, complementary to the initiation codon region (5′-TCC ATG GTG CTC ACT-3′), and the control, non-sequence specific SC (5′-CTA GCC ATG CTT GTC-3′) ODNs were synthesized and purified by reverse phase HPLC by Ransom Hill Biosciences (Ramona, Calif.). […] PANC-1 or COLO 357 cells were seeded/in a six well plate and transfected 24 hours later with the TfRscFv-LipA complex carrying 1 μM (for PANC-1) or 0.5 μM (for COLO 357) AS HER-2 or SC HER-2 ODN (negative control). The cells were transfected with either oligo alone or, to look for a synergistic effect, in combination with gemcitabine (Gemzar®). At the indicated times, the cells were harvested, lysed in RIPA buffer, protein determined, run (60 ug total protein/lane) on a 4-20% gradient polyacrylamide/SDS gel and transferred to nitrocellulose for Western analysis as described in Examples 1, 3 and 4. To detect HER-protein expression the membranes were probed with the anti-human HER-2/Neu (C-18) rabbit polyclonal Ab (Santa Cruz Biotechnology) and the signal detected by ECL (Amersham). Change in protein expression as compared to untreated cells was also ascertained for total and/or phosphorylated Akt (Ser 473), a central component in the PI3K pathway (using an anti-Human polyclonal Ab, Cell Signaling Technology),phosphorylated BAD (Ser 136), an important factor in regulation of apoptosis (using an anti-human rabbit polyclonal antibody, Cell Signaling Technology), as well as cleaved caspase 3 (Asp 175) (using the rabbit polyclonal antibody, specific for the 17 kDa subunit, Cell Signaling Technology) and PARP/cleaved PARP (poly ADP ribopolymerase, another marker of apoptosis) using an anti-human rabbit polyclonal antibody, (Cell Signaling Technology) both downstream indicators of apoptosis.
# [2] = system: components of the PI3K/AKT pathway and apoptosis; experiment: Western analysis of signal transduction and apoptosis proteins in COLO357 cells; type: cell-based; settings: 8 hrs post-transfection
# Description: as §1
# The phosphorothioate sequence specific AS HER-2, complementary to the initiation codon region (5′-TCC ATG GTG CTC ACT-3′), and the control, non-sequence specific SC (5′-CTA GCC ATG CTT GTC-3′) ODNs were synthesized and purified by reverse phase HPLC by Ransom Hill Biosciences (Ramona, Calif.). […] PANC-1 or COLO 357 cells were seeded/in a six well plate and transfected 24 hours later with the TfRscFv-LipA complex carrying 1 μM (for PANC-1) or 0.5 μM (for COLO 357) AS HER-2 or SC HER-2 ODN (negative control). The cells were transfected with either oligo alone or, to look for a synergistic effect, in combination with gemcitabine (Gemzar®). At the indicated times, the cells were harvested, lysed in RIPA buffer, protein determined, run (60 ug total protein/lane) on a 4-20% gradient polyacrylamide/SDS gel and transferred to nitrocellulose for Western analysis as described in Examples 1, 3 and 4. To detect HER-protein expression the membranes were probed with the anti-human HER-2/Neu (C-18) rabbit polyclonal Ab (Santa Cruz Biotechnology) and the signal detected by ECL (Amersham). […]
# [3] = system: 17 kDa fragment of caspase 3; experiment: 17 kDa fragment of caspase 3 in PANC-1 cells in vitro (Western); type: cell-based, human; settings: 9 hours, Gemzar 0.8 μM, ODN 1 μM
# Description: A. To detect the presence of the 17 kDa active caspase 3 fragment in cell cultures the following procedure was used in subsequent Examples to isolate total protein from both living and dead floating cells. The medium from the cell culture vessel was removed and reserved.
# To lyse the cells, resuspend the cell pellet in 150 μl-200 μl RIPA buffer (with freshly prepared inhibitors) per 3×10^6 cells. RIPA buffer is 1×PBS, 1% NP40, 0.5% sodium deoxycholate, 0.1% SDS (this may be made in large volumes). Add inhibitors at time of use from the following stock solutions:
# In a further specific embodiment of this invention, it was determined that the cleaved 17 kDa subunit can be detected in tumor and/or blood as a means of verifying the efficacy of therapy with antisense (AS) HER-2, i.e. that the apoptotic pathway is induced by AS HER-2 treatment. […]
# Also evaluated in vitro was the induction of the 17 kDa fragment by the combination of the TfRscFv-LipA-AS HER-2 plus the chemotherapeutic agent Gemzar® (gemcitabine).
# [4] = system: 17 kDa cleaved caspase 3 fragment; experiment: Tumor-specific localization of the 17 kDa fragment in tumor, liver and lung of PANC-1 xenograft mice; type: in vivo; settings: PANC-1 tumor; ODN 10 mg/kg i.v. daily for six days; Gemzar 60 mg/kg i.p. x3; 24 hours after last injection
# Description: PANC-1 tumors were induced by implantation of <1 mm^3 tumor sections from serially passaged PANC-1 xenograft tumors into 4-6 week old female nude mice. When the tumors reached approximately 100-200 mm^3 the TfRscFv-LipA-AS HER-2 complex was i.v. injected into the tail vein daily for six days. The dose of ODN (AS or SC) administered per mouse was 10 mg/kg/injection. For comparison to standard therapy, a separate animal received chemotherapeutic agent Gemzar® (i.p.) only (60 mg/kg/injection) every other day to a total of three injections. In addition, one mouse received the combination of TfRscFv-LipA-AS HER-2 and Gemzar® at the above dose and schedule, and, as a control, one received the combination of complex carrying SC ODN and Gemzar® at the above dose and schedule. All mice were sacrificed 24 hours after the last injection and tumor, liver and lung were harvested as in Example 1. To assess tumor specific targeting in this model HER-2 and the 17 kDa cleaved caspase 3 fragment expression in the tissues was examined by Western Blot analysis Examples 3 and 4. The effect of TfRscFv-LipA-AS HER-2 on induction of the 17 kDa fragment in tumor and tissue samples also screened for HER-2 levels was examined.
# PANC-1 xenograft tumors = experiment: In vivo chemosensitization: growth of subcutaneous PANC-1 xenograft tumors; parameters: species or system mice; settings: complex i.v. three times per week, ODN 9 mg/kg (18 injections); Gemzar i.p. twice weekly 60 mg/kg (12 injections)
# Description: The efficacy of the TfRscFv-LipA-AS HER-2 in treating PanCa in vivo was assessed using the subcutaneous PANC-1 xenograft mouse model. Athymic nude mice (5-9 mice/group with two tumors/mouse) bearing subcutaneous xenograft tumors of ˜50 mm^3 were treated three times per week with the TfRscFv-LipA-AS HER-2 complex containing ODN at 9 mg/kg/injection. As controls one group of animals received Gemzar® alone, the TfRscFv-LipA-AS HER-2 alone, or the combination of Gemzar® and the complex carrying the SC ODN. Gemzar® was given I.P. twice weekly at 60 mg/kg. The animals received a total of 18 i.v. injections of complex and 12 of Gemzar®.
smiles,measurement,setting,value
"Nc1ccn([C@@H]2O[C@H](CO)[C@@H](O)C2(F)F)c(=O)n1 [Gemzar®, gemcitabine]",cleaved caspase 3 (appearance of the 17 kDa protein),[1]; 8 hours post-transfection,not in those cells
same,cleaved PARP,[1]; 16 hours post-transfection,evident
same,cleaved caspase 3 (17 kDa fragment),[1]; 16 hours post-transfection,evident
same,cleaved PARP,[2],little or no evidence
same,cleaved caspase 3 (17 kDa subunit),[2],little or no evidence
same,expression of 17 kDa fragment,[3],did not result in the expression of this fragment above background levels
same,induction of the 17 kDa fragment in the tumor,[4],not evident
same,tumor growth,PANC-1 xenograft tumors,only minimal effect
